Data reported in the NIST ThermoML archive (doi:10.1016/j.jct.2009.11.011).
Several values for one entry are separate records, joined by “and”; a condition that tells them apart may be missing. Equal entries are not always repeated.

Experiments:
[1] = for vapor or sublimation pressure: Liquid, Ebulliometric method (Recirculating still)
[2] = Molar enthalpy of transition or fusion; conditions: Crystal; Adiabatic calorimetry
[3] = molar heat capacity at saturation pressure

c1cnc2c(c1)ccc1cccnc12 [1,10-phenanthroline]
[1]
Conditions	vapor or sublimation pressure
523.28 K	2 kPa and 2.001 kPa
531.9 K	2.668 kPa
554.04 K	5.325 kPa
568.22 K	8.008 kPa
578.69 K	10.65 kPa
587.24 K	13.33 kPa
595.98 K	16.64 kPa
603.36 K	19.95 kPa

Conditions	Triple point temperature, Crystal [K]	molar heat capacity, 460 K [J/K/mol]	molar heat capacity, 480 K [J/K/mol]	molar heat capacity, 500 K [J/K/mol]	molar heat capacity, 520 K [J/K/mol]	molar heat capacity, 540 K [J/K/mol]	molar heat capacity, 560 K [J/K/mol]	molar heat capacity, 580 K [J/K/mol]	molar heat capacity, 600 K [J/K/mol]
[1], Adiabatic calorimetry	391.71	–	–	–	–	–	–	–	–
[3], Liquid	–	337.52	346.29	355	363.5	371.9	380.1	388.2	396

Conditions	Molar enthalpy of transition or fusion [kJ/mol]
[2]	15.5

molar heat capacity [J/K/mol], [3], Vacuum adiabatic calorimetry
Conditions	Crystal	Liquid
5 K	1.26	–
5.659 K	1.78	–
6.394 K	2.35	–
7.405 K	3.18	–
8.419 K	4.13	–
9.46 K	5.19	–
10 K	5.74	–
10.55 K	6.31	–
11.75 K	7.62	–
13.08 K	9.121	–
14.53 K	10.68	–
16.13 K	12.55	–
17.88 K	14.51	–
19.8 K	16.6	–
20 K	16.82	–
21.93 K	18.87	–
24.3 K	21.41	–
26.92 K	24.1	–
29.85 K	26.95	–
30 K	27.1	–
33.1 K	29.99	–
36.75 K	33.23	–
40 K	35.93	–
40.82 K	36.58	–
45.34 K	40.14	–
50 K	43.64	–
50.36 K	43.96	–
55.93 K	47.63	–
57.69 K	48.9	–
60 K	50.34	–
60.42 K	50.6	–
63.28 K	52.36	–
66.47 K	54.41	–
69.78 K	56.39	–
70 K	56.51	–
73.24 K	58.45	–
76.94 K	60.52	–
80 K	62.29	–
80.6 K	62.63	–
84.91 K	65	–
88.8 K	67.21	–
90 K	67.87	–
97.84 K	72.09	–
100 K	73.23	–
100.26 K	73.38	–
109.98 K	78.65	–
119.96 K	84.22	–
120 K	84.24	–
131.01 K	90.44	–
140 K	95.58	–
143.07 K	97.35	–
155.1 K	104.48	–
160 K	107.41	–
167.1 K	111.7	–
179.08 K	119.1	–
180 K	119.68	–
191.08 K	126.69	–
200 K	132.42	–
203.14 K	134.46	–
215.25 K	142.45	–
220 K	145.57	–
227.38 K	150.47	–
239.55 K	158.67	–
240 K	158.97	–
251.77 K	167.01	–
260 K	172.69	–
264.02 K	175.49	–
276.3 K	183.86	–
280 K	186.36	–
288.6 K	192.35	–
289.46 K	192.8	–
298.15 K	198.74	–
300 K	200	–
300.24 K	200.19	–
312.29 K	208.49	–
320 K	213.76	–
324.53 K	216.87	–
336.89 K	225.26	–
336.98 K	225.23	–
340 K	227.24	–
348.97 K	233.42	–
349.32 K	233.65	–
360 K	240.63	–
361.05 K	241.49	–
373.19 K	249.78	–
375.19 K	–	297.88
380 K	253.68	300.22
381.3 K	256.64	–
382.84 K	–	301.57
383.75 K	260.04	–
391.52 K	–	305.71
391.71 K	261.46	305.81
397.93 K	–	308.79
400 K	–	309.76
400.3 K	–	309.93
402.69 K	–	311.03
404.9 K	–	312.06
413.55 K	–	316.13
416.42 K	–	317.49
420 K	–	319.14
429.03 K	–	323.3
439.59 K	–	328.19
440 K	–	328.39
